Molecular target: WT αHL protein pore (Staphylococcus aureus, UniProt P09616)
Type: binding
Conditions: pH 7

Chain of WT αHL protein pore (P09616 27-319 limits assumed): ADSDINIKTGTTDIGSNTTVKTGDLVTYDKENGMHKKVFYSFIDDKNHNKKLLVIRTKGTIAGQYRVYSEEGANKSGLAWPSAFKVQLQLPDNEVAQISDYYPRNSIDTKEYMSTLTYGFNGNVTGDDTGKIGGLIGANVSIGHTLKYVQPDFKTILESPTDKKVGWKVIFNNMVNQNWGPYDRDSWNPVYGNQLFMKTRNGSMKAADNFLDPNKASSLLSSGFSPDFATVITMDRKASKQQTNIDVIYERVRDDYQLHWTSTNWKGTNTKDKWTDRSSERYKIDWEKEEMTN

SMILES: OC[C@H]1O[C@@H]2O[C@H]3[C@H](O)[C@@H](O)[C@@H](O[C@H]4[C@H](O)[C@@H](O)[C@@H](O[C@H]5[C@H](O)[C@@H](O)[C@@H](O[C@H]6[C@H](O)[C@@H](O)[C@@H](O[C@H]7[C@H](O)[C@@H](O)[C@@H](O[C@H]8[C@H](O)[C@@H](O)[C@@H](O[C@H]9[C@H](O)[C@@H](O)[C@@H](O[C@H]1[C@H](O)[C@H]2O)O[C@@H]9CO)O[C@@H]8CO)O[C@@H]7CO)O[C@@H]6CO)O[C@@H]5CO)O[C@@H]4CO)O[C@@H]3CO [γ-cyclodextrin]
- binding kinetics and current attenuation of γ-cyclodextrin binding, pore inserted by the present method compared with the conventional method: the same

— patent US7939270B2 (priority 2005, dated 2011)
